Reference: patent US20090246240A1, “DRY BACTERICIDAL NONWOVEN WIPE” (priority 2008, published 2009)
Read-outs that look alike come from different tables or passages of the source.

What was measured:
[1] = system: methicillin resistant Staphylococcus aureus (MRSA); assay: AATCC Test Method 100: Assessment of Antibacterial Finishes on Textile Materials (MRSA); assay type: cell-based
Description: (§1) A dry bactericidal wipe comprising was formed using 100% 1.5 denier Visocel® rayon fibers 38-mm in length, available from SNIACE of Torrelavega, Cantabria, Spain. A binder composition containing 5% of an acrylic binder, ST 954, available from Rohm and Hass Chemicals LLC of Charlotte, N.C., U.S.A. and 95% water was applied first using foam application at the first application at a level of about 10.6 grams per square yard, heating using steam or oil heated cans for about 45 seconds at a temperature of about 275° Fahrenheit. A second application of the binder/bactericidal composition containing 5% of the ST 954 acrylic binder, 1% tetradecylbenzyldimethyl ammonium chloride, and 94% water was applied by padding at a level of about 1.2 grams per square yard. The web is then heated in the same manner as above. The wipe has thickness of about 11 mils measured according to ASTM D 1777 and a basis weight of 37.8 g/yd^2, measured according to ASTM D 3776. A sample was prepared for bactericidal testing according to AATCC Test Method 100: Assessment of Antibacterial Finishes on Textile Materials.
(§2) Another aspect of the present invention is the discovery of a new use for a certain bactericidal agent, namely the tetradecylbenzyldimethyl ammonium chloride. As will be appreciated by those skilled in the art, there are various methods to assess the effectiveness of a bactericidal agent. The discovery here is that this particular bactericidal agent provides a greater than 90%, preferably greater than 95%, and more preferably greater than 99% reduction in bacterium, including methicillin resistant Staphylococcus aureus (MRSA or Mursa), Staphylococcus aureus, Klebsiella pneumoniae, or combinations thereof. One method for determining the reduction of such organisms is American Association of Textile Chemists and Colorists (AATCC) Test Method 100, using American Type Culture Collection (ATCC) reference organisms ATCC 33591, methicillin resistant Staphylococcus aureus (MRSA), ATCC 6538, Staphylococcus aureus, and ATCC 4352, Klebsiela pneumoniae. […]

Staphylococcus aureus = assay: AATCC Test Method 100: Assessment of Antibacterial Finishes on Textile Materials (Staphylococcus aureus); assay type: cell-based, ATCC 6538
Description: as §1, §2

Klebsiella pneumoniae = assay: AATCC Test Method 100: Assessment of Antibacterial Finishes on Textile Materials (Klebsiella pneumoniae); assay type: cell-based, ATCC 4352
Description: as §1, §2

[2] = listed as tetradecyl benzyl dimethyl ammonium chloride
[3] = listed as tetradecyldimethylbenzyl ammonium chloride

Question: For `CCCCCCCCCCCCCC[N+](C)(C)Cc1ccccc1.[Cl-]` [tetradecylbenzyldimethyl ammonium chloride], which “reduction in methicillin resistant Staphylococcus aureus (MRSA)” value (shortened to “reduction … (MRSA)”) [1] is on record?
Answer: greater than 90%

Question: And the “reduction … (MRSA)” value [1, 2]?
Answer: greater than 90%

Question: And the “reduction … (MRSA)” value [1, 3]?
Answer: more than 99%

Question: And the “reduction in Staphylococcus aureus bacterium” value (Staphylococcus aureus)?
Answer: greater than 90%

Question: What about the “reduction in Staphylococcus aureus bacterium” value (Staphylococcus aureus; [2]) of the same molecule?
Answer: greater than 90%

Question: What about the “reduction in Staphylococcus aureus bacterium” value (Staphylococcus aureus; [3]) of the same molecule?
Answer: more than 99%

Question: What about the “reduction in the Klebsiella pneumoniae bacterium” value (Klebsiella pneumoniae) of the same molecule?
Answer: greater than 90%

Question: And the “reduction in the Klebsiella pneumoniae bacterium” value (Klebsiella pneumoniae; [2])?
Answer: greater than 90%

Question: And the “reduction in the Klebsiella pneumoniae bacterium” value (Klebsiella pneumoniae; [3])?
Answer: more than 99%
